# Reference: ChEMBL document CHEMBL1133897, “Synthesis, antimalarial activity and inhibition of haem detoxification of novel bisquinolines” (Bioorg Med Chem Lett, 2001)
# pIC50: −log10 of the molar value.
# Experiments:
# Plasmodium falciparum [1] = experiment: Growth inhibition of chloroquine-resistant Plasmodium falciparum KI; assay type: functional, organism-based
# Plasmodium falciparum [2] = experiment: Growth inhibition of chloroquine-sensitive Plasmodium falciparum D10; assay type: functional, organism-based
# [3] = biological target: T1, Histidine-rich protein PFHRP-II (Plasmodium falciparum, UniProt P05227); experiment: Inhibition of beta-hematin formation in Plasmodium falciparum; assay type: functional
# T1 sequence (P05227 whole entry): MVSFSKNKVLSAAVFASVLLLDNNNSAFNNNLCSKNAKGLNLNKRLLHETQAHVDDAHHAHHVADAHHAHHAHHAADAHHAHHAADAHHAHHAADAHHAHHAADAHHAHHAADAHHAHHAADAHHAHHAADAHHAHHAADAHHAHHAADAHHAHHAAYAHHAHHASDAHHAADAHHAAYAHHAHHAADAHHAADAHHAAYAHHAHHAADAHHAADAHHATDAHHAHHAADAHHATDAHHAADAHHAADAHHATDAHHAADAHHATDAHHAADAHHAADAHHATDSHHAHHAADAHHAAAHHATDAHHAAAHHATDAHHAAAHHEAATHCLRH
# Plasmodium falciparum [4] = experiment: Inhibition of hydrogen peroxide-mediated haem detoxification in Plasmodium falciparum; assay type: functional, organism-based
Compound,pIC50 (Plasmodium falciparum [1]),pIC50 (Plasmodium falciparum [2]),pIC50 [3],pIC50 (Plasmodium falciparum [4])
CCC1CN2CCC1CC2C(O)c1ccnc2c(CNC(=O)CCCCCCCCC(=O)Nc3cccc4c(C(O)C5CC6CCN5CC6CC)ccnc34)cccc12 (stereo unspecified),7.70,7.30,–,–
CCN(CC)CCCC(C)Nc1cc(CCCCCCCCc2cc(NC(C)CCCN(CC)CC)c3ccccc3n2)nc2ccccc12 (stereo unspecified),7.60,6.91,4.01,4.09
CCN(CC)CCCC(C)Nc1cc(CCCCCCCCCCc2cc(NC(C)CCCN(CC)CC)c3ccccc3n2)nc2ccccc12 (stereo unspecified),7.80,6.81,4.03,4.10
CCN(CC)CCCC(C)Nc1cc(CCCCCCCCCCCCc2cc(NC(C)CCCN(CC)CC)c3ccccc3n2)nc2ccccc12 (stereo unspecified),7.77,7.37,4.07,4.43
OC(c1cc(C(F)(F)F)nc2c(C(F)(F)F)cccc12)C1CCCCN1 (stereo unspecified) [MEFLOQUINE],–,7.05,–,4.52
